The source made the active and inactive calls. The rule behind the calls is not given here.
Assays:
[1] = biological target: T1, Peroxisome proliferator-activated receptor alpha (Homo sapiens) (UniProt Q07869); experiment: Agonist activity at human PPARalpha expressed in African green monkey COS7 cells assessed as increase in receptor transcriptional activity at 10 uM by luciferase reporter gene assay relative to WY-14643; type: cell-based
T1 sequence (whole entry): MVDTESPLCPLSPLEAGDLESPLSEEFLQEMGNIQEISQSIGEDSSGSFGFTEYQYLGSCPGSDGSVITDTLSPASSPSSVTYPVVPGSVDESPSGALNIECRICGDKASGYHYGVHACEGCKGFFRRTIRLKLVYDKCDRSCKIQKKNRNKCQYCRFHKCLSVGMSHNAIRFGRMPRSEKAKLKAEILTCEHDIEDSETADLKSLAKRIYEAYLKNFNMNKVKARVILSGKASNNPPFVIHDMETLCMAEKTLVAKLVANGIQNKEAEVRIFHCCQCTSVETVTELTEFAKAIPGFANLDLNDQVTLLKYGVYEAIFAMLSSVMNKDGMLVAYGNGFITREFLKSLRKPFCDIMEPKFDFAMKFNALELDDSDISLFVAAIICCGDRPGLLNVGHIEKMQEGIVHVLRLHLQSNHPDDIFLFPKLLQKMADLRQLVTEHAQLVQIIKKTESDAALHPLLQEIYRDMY

[2] = biological target: T2, Peroxisome proliferator-activated receptor gamma (Homo sapiens) (UniProt P37231); details: at 10 µM
T2 sequence (whole entry): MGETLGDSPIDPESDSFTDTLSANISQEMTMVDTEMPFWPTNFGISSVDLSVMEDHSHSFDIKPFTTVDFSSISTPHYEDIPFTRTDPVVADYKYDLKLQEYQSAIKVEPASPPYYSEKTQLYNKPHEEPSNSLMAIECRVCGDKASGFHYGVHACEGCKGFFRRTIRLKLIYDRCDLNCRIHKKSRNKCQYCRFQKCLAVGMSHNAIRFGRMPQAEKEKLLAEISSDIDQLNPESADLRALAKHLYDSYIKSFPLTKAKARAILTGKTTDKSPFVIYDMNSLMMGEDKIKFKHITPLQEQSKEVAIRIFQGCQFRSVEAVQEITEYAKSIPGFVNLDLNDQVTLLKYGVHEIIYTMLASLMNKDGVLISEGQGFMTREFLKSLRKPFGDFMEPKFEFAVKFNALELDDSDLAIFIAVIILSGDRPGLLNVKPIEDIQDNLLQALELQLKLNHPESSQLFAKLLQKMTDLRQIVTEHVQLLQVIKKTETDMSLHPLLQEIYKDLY

Neutrophil [3] = experiment: Cytotoxicity against human neutrophils assessed as induction of cell damage at 30 uM incubated for 24 hrs by MTT assay; type: cell-based
[4] = biological target: T3, Peroxisome proliferator-activated receptor gamma (Homo sapiens, UniProt P37231); experiment: Agonist activity at human PPARgamma expressed in African green monkey COS7 cells assessed as increase in receptor transcriptional activity by luciferase reporter gene assay relative to rosiglitazone; type: cell-based
T3 sequence (P37231 whole entry): T2 sequence (whole entry)

[5] = biological target: T4, Peroxisome proliferator-activated receptor alpha (Homo sapiens, UniProt Q07869); experiment: Agonist activity at human PPARalpha expressed in African green monkey COS7 cells assessed as increase in receptor transcriptional activity by luciferase reporter gene assay relative to WY-14643; type: cell-based
T4 sequence (Q07869 whole entry): T1 sequence (whole entry)

HUVEC [6] = experiment: Cytotoxicity against HUVEC assessed as induction of cell damage at 30 uM incubated for 24 hrs by MTT assay; type: cell-based; details: human
HUVEC [7] = experiment: (§1) Anti-inflammatory activity in HUVEC assessed as reduction in TNFalpha-stimulated neutrophil-HUVEC interactions by measuring decrease in neutrophil adhesion to endothelial cells at 1 uM pretreated for 20 hrs before TNFalpha stimulation for 24 hrs using freshly isolated neutrophils perfused over endothelial monolayers for 5 mins by phase contrast microscopy; type: functional, cell-based; details: Homo sapiens
HUVEC [8] = experiment: Induction of apoptosis in HUVEC at 30 uM incubated for 24 hrs by annexin V-FITC and propidium iodide staining based flow cytometry; type: cell-based; details: human
HUVEC [9] = experiment: as §1, with “mononuclear leukocyte” for “neutrophil adhesion”, “mononuclear leukocytes” for “neutrophils”; type: functional, cell-based; details: Homo sapiens
[10] = biological target: RXR alpha/PPAR gamma (Homo sapiens) (UniProt P37231+P19793); experiment: Induction of RXRalpha/PPARgamma interaction in HUVEC at 10 uM pretreated for 20 hrs before TNFalpha stimulation by immunoprecipitation and Western blotting analysis; type: cell-based
HUVEC [11] = experiment: as §1, with “mononuclear leukocyte” for “neutrophil adhesion”, “10” for “1”, “treated” for “pretreated”, “post 48 hrs after PPARalpha siRNA transfection followed by” for “before”, “mononuclear leukocytes” for “neutrophils”; type: functional, cell-based; details: Homo sapiens
HUVEC [12] = experiment: as §1, with “mononuclear leukocyte” for “neutrophil adhesion”, “10” for “1”, “treated” for “pretreated”, “post 48 hrs after RXRalpha siRNA transfection followed by” for “before”, “mononuclear leukocytes” for “neutrophils”; type: functional, cell-based; details: Homo sapiens
[13] = Cytotoxicity against HUVEC assessed as cell viability at 30 uM incubated for 24 hrs by MTT assay; type: cell-based; details: human, HUVEC cells; read-out: Activity
HUVEC [14] = experiment: as §1, with “mononuclear leukocyte” for “neutrophil adhesion”, “10” for “1”, “mononuclear leukocytes” for “neutrophils”, “mins in presence of PPARgamma antagonist GW9662” for “mins”; type: functional, cell-based; details: Homo sapiens
HUVEC [15] = experiment: Cytotoxicity against HUVEC assessed as reduction in cell viability at 30 uM incubated for 24 hrs by MTT assay; type: cell-based; details: human
HUVEC [16] = experiment: as §1, with “mononuclear leukocyte” for “neutrophil adhesion”, “cells” for “cells at 1 uM”, “mononuclear leukocytes” for “neutrophils”; type: functional, cell-based; details: Homo sapiens
HUVEC [17] = experiment: as §1, with “mononuclear leukocyte” for “neutrophil adhesion”, “10” for “1”, “mononuclear leukocytes” for “neutrophils”, “mins in presence of PPARalpha antagonist GW6471” for “mins”; type: functional, cell-based; details: Homo sapiens
Neutrophil [18] = experiment: Cytotoxicity against human neutrophils assessed as reduction in cell viability at 30 uM incubated for 24 hrs by MTT assay; type: cell-based
HUVEC [19] = experiment: as §1, with “mononuclear leukocyte” for “neutrophil adhesion”, “10” for “1”, “treated” for “pretreated”, “post 48 hrs after PPARgamma siRNA transfection followed by” for “before”, “mononuclear leukocytes” for “neutrophils”; type: functional, cell-based; details: Homo sapiens
HUVEC [20] = experiment: as §1, with “mononuclear leukocyte” for “neutrophil adhesion”, “10” for “1”, “treated” for “pretreated”, “post 48 hrs after control siRNA transfection followed by” for “before”, “mononuclear leukocytes” for “neutrophils”; type: functional, cell-based; details: Homo sapiens
Neutrophil [21] = experiment: Induction of apoptosis in human neutrophils at 30 uM incubated for 24 hrs by annexin V-FITC and propidium iodide staining based flow cytometry; type: cell-based
[22] = Cytotoxicity against human neutrophils assessed as cell viability at 30 uM incubated for 24 hrs by MTT assay; type: cell-based, Neutrophil; details: read-out: Activity
HUVEC [23] = experiment: as §1, with “mononuclear leukocyte” for “neutrophil adhesion”, “treated” for “pretreated”, “post 48 hrs after control siRNA transfection followed by” for “before”, “mononuclear leukocytes” for “neutrophils”; type: functional, cell-based; details: Homo sapiens
HUVEC [24] = experiment: as §1, with “mononuclear leukocyte” for “neutrophil adhesion”, “treated” for “pretreated”, “28” for “20”, “post 48 hrs after PPARalpha siRNA transfection followed by” for “before”, “mononuclear leukocytes” for “neutrophils”; type: functional, cell-based; details: Homo sapiens

COC(=O)/C(C)=C/CC/C(C)=C/CC[C@]1(C)CCc2cc(O)cc(C)c2O1
Efficacy [1]: 27% | Efficacy [2]: 35%

COc1cc(C)c2c(c1)CC[C@@](C)(CC/C=C(\C)CC/C=C(\C)C(=O)O)O2
Activity (Neutrophil [3]): Toxic | EC50 ([4]; read-out: EC50): 1 µM | EC50 ([5]; read-out: EC50): 1 µM | Efficacy [1]: 82% | Efficacy [2]: 55% | Activity (HUVEC [6]): Toxic

COC(=O)COC(=O)/C(C)=C/CC/C(C)=C/CC[C@]1(C)CCc2cc(OC)cc(C)c2O1
Efficacy [1]: 39% | Efficacy [2]: 24%

CCCOC(=O)/C(C)=C/CC/C(C)=C/CC[C@]1(C)CCc2cc(O)cc(C)c2O1
EC50 ([4]; read-out: EC50): 0.991 µM | Efficacy [1]: 49% | Efficacy [2]: 86%

C/C(=C\CC[C@]1(C)CCc2cc(OCc3ccccc3)cc(C)c2O1)CC/C=C(\C)C(=O)OCc1ccccc1
Efficacy [1]: 28%

C/C(=C\CC[C@]1(C)CCc2cc(OCC(N)=O)cc(C)c2O1)CC/C=C(\C)C(=O)OCc1ccccc1
Efficacy [1]: 18%

Cc1cc(SCc2sc(-c3ccc(C(F)(F)F)cc3)nc2C)ccc1OCC(=O)O
Efficacy [1]: inactive

C/C(=C\CC[C@]1(C)CCc2cc(O)cc(C)c2O1)CC/C=C(\C)C(=O)O
Activity (HUVEC [7]): inactive | Activity (HUVEC [8]): Non-Toxic | EC50 ([4]; read-out: EC50): 0.084 µM | Activity (HUVEC [9]): Active | Activity [10]: Active | Activity (HUVEC [11]): Active | EC50 ([5]; read-out: EC50): 0.184 µM | Activity (HUVEC [12]): inactive | viability at 24 h, 30 µM [13]: 73.4% | Efficacy [1]: 107% | Activity (HUVEC [14]): inactive | Activity (HUVEC [15]): Non-Toxic | IC50 (HUVEC [16]): 4.9 µM | Activity (HUVEC [17]): Active | Activity (Neutrophil [18]): Non-Toxic | Efficacy [2]: 95% | Activity (HUVEC [19]): inactive | Activity (HUVEC [20]): Active | Activity (Neutrophil [21]): Non-Toxic | viability at 24 h, 30 µM [22]: 89.2%

CN(CCOc1ccc(CC2SC(=O)NC2=O)cc1)c1ccccn1 (stereo unspecified) [ROSIGLITAZONE]
Activity (HUVEC [7]): inactive | Activity (HUVEC [9]): Active | EC50 [5]: Not Active | Activity (HUVEC [23]): Active | Efficacy [1]: inactive | Activity (HUVEC [15]): Toxic | inhibition (HUVEC [16]): Dose-dependent effect | Activity (Neutrophil [18]): Toxic | Activity (HUVEC [24]): Active

COC(=O)COC(=O)/C(C)=C/CC/C(C)=C/CC[C@]1(C)CCc2cc(OC(=O)c3ccccc3)cc(C)c2O1
Efficacy [1]: 14%

CCCOc1cc(C)c2c(c1)CC[C@@](C)(CC/C=C(\C)CC/C=C(\C)C(=O)O)O2
EC50 ([4]; read-out: EC50): 1.69 µM | EC50 ([5]; read-out: EC50): 1 µM | Efficacy [1]: 191% | Efficacy [2]: 88%

COC(=O)C(OC(=O)/C(C)=C/CC/C(C)=C/CC[C@]1(C)CCc2cc(OC)cc(C)c2O1)C(=O)OC
EC50 ([5]; read-out: EC50): 1.62 µM | Efficacy [1]: 76% | Efficacy [2]: 37%

CC1=C(/C=C/C(C)=C\C=C\C(C)=C\C(=O)O)C(C)(C)CCC1
Efficacy [1]: inactive

Cc1cccc(Nc2cc(Cl)nc(SCC(=O)O)n2)c1C [PIRINIXIC ACID]
Activity (HUVEC [7]): inactive | EC50 [4]: Not Active
